According to patent US20230322761A1, “DEGRADATION OF BRUTON'S TYROSINE KINASE (BTK) BY CONJUGATION OF BTK INHIBITORS WITH E3 LIGASE LIGAND AND METHODS OF USE” (BEIGENE, LTD., priority 2020, published 2023):

Biological target: T1, BTK (Homo sapiens, UniProt Q06187)
T1 construct: endogenous in cells; host or cells: TMD-8 cells
Test: BTK degradation in TMD-8 cells, HTRF assay after 6 h treatment
Type: cell-based
Settings: IC50 (DC50) of BTK degradation
How it was run: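 Remaining BTK was quantified by HTRF in lysates of TMD-8 cells after 6 h exposure to an 8-point, 6-fold compound series (500× stocks in DMSO starting at 1 mM; 0.2% DMSO). Lysis 30 min, antibodies overnight at room temperature, ratio read at 665/620 nm; DC50 fitted with a four-parameter logistic equation.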

T1 sequence (Q06187 whole entry): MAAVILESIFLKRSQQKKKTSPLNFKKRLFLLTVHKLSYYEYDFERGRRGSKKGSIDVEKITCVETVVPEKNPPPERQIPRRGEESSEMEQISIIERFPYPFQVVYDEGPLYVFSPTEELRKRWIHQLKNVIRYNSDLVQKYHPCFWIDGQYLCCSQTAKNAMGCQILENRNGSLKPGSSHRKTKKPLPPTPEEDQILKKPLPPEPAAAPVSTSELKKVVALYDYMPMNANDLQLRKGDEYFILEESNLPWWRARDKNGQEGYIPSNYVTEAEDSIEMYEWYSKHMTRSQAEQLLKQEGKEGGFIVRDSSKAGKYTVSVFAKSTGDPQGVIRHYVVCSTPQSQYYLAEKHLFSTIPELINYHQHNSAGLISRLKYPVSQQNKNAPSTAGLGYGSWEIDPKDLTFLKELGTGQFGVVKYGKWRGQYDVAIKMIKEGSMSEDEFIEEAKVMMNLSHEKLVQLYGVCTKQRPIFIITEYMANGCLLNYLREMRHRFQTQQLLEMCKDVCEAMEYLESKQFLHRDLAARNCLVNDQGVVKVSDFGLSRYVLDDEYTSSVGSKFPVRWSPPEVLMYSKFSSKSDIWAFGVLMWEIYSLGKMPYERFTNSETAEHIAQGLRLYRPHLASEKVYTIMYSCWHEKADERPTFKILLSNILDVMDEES

DC50 [nM] | Structure (SMILES)
1.03 | Cc1cc(-c2n[nH]c3ncc(-c4ccc(N5CCN(CCc6ccc([C@@H]7CCC(=O)NC7=O)cn6)CC5)cc4)cc23)ccc1[C@@H](C)NC(=O)c1noc(C(C)(C)C)n1 [Example 139, 5-(tert-butyl)-N—((R)-1-(4-(5-(4-(4-(2-(5-((S)-2,6-dioxopiperidin-3-yl)pyridin-2-yl)ethyl)piperazin-1-yl)phenyl)-1H-pyrazolo[3,4-b]pyridin-3-yl)-2-methylphenyl)ethyl)-1,2,4-oxadiazole-3-carboxamide]
1.11 | Cc1cc(-c2n[nH]c3ncc(-c4ccc(N5CCN(CCc6ccc([C@H]7CCC(=O)NC7=O)cn6)CC5)cc4)cc23)ccc1[C@@H](C)NC(=O)c1noc(C(C)(C)C)n1 [Example 140, 5-(tert-butyl)-N—((R)-1-(4-(5-(4-(4-(2-(5-((R)-2,6-dioxopiperidin-3-yl)pyridin-2-yl)ethyl)piperazin-1-yl)phenyl)-1H-pyrazolo[3,4-b]pyridin-3-yl)-2-methylphenyl)ethyl)-1,2,4-oxadiazole-3-carboxamide]
3.27 | Cc1cc(CCN2CCN(c3ccc(-c4cnc5[nH]nc(-c6ccc([C@@H](C)NC(=O)c7noc(C(C)(C)C)n7)c(C)c6)c5c4)cc3)CC2)ncc1C1CCC(=O)NC1=O (stereo partly drawn) [Example 141, 5-(tert-butyl)-N-((1R)-1-(4-(5-(4-(4-(2-(5-(2,6-dioxopiperidin-3-yl)-4-methylpyridin-2-yl)ethyl)piperazin-1-yl)phenyl)-1H-pyrazolo[3,4-b]pyridin-3-yl)-2-methylphenyl)ethyl)-1,2,4-oxadiazole-3-carboxamide]
6.15 | Cc1cc(-c2n[nH]c3ncc(-c4ccc(N5CCN(CCCOc6ccc(NC7CCC(=O)NC7=O)c(F)c6)CC5)cc4)cc23)ccc1[C@@H](C)NC(=O)c1noc(C(C)(C)C)n1 (stereo partly drawn) [Example 142, 5-(tert-butyl)-N-((1R)-1-(4-(5-(4-(4-(3-(4-((2,6-dioxopiperidin-3-yl)amino)-3-fluorophenoxy)propyl)piperazin-1-yl)phenyl)-1H-pyrazolo[3,4-b]pyridin-3-yl)-2-methylphenyl)ethyl)-1,2,4-oxadiazole-3-carboxamide]
18.8 | Cc1cc(-c2n[nH]c3ncc(-c4ccc(N5CCN(CCn6cc(N7CCC(=O)NC7=O)cn6)CC5)cc4)cc23)ccc1[C@@H](C)NC(=O)c1noc(C(C)(C)C)n1 [Example 143, (R)-5-(tert-butyl)-N-(1-(4-(5-(4-(4-(2-(4-(2,4-dioxotetrahydropyrimidin-1(2H)-yl)-1H-pyrazol-1-yl)ethyl)piperazin-1-yl)phenyl)-1H-pyrazolo[3,4-b]pyridin-3-yl)-2-methylphenyl)ethyl)-1,2,4-oxadiazole-3-carboxamide]
1.93 | Cc1cc(-c2n[nH]c3ncc(-c4ccc(N5CCC(CN6CCN(c7ccc(N8CCC(=O)NC8=O)cc7)CC6)CC5)cc4)cc23)ccc1[C@@H](C)NC(=O)c1noc(C(C)(C)C)n1 [Example 144, (R)-5-(tert-butyl)-N-(1-(4-(5-(4-(4-((4-(4-(2,4-dioxotetrahydropyrimidin-1(2H)-yl)phenyl)piperazin-1-yl)methyl)piperidin-1-yl)phenyl)-1H-pyrazolo[3,4-b]pyridin-3-yl)-2-methylphenyl)ethyl)-1,2,4-oxadiazole-3-carboxamide]
1.22 | Cc1cc(CCN2CCC(c3ccc(-c4cnc5[nH]nc(-c6ccc([C@@H](C)NC(=O)c7noc(C(C)(C)C)n7)c(C)c6)c5c4)nc3)CC2)ncc1C1CCC(=O)NC1=O (stereo partly drawn) [Example 145, 5-(tert-butyl)-N-((1R)-1-(4-(5-(5-(1-(2-(5-(2,6-dioxopiperidin-3-yl)-4-methylpyridin-2-yl)ethyl)piperidin-4-yl)pyridin-2-yl)-1H-pyrazolo[3,4-b]pyridin-3-yl)-2-methylphenyl)ethyl)-1,2,4-oxadiazole-3-carboxamide]
1.74 | Cc1cc(-c2n[nH]c3ncc(-c4ccc(N5CCN(CCc6ccc(C7CCC(=O)NC7=O)c(F)c6)CC5)cn4)cc23)ccc1[C@@H](C)NC(=O)c1noc(C(C)(C)C)n1 (stereo partly drawn) [Example 146, 5-(tert-butyl)-N-((1R)-1-(4-(5-(5-(4-(4-(2,6-dioxopiperidin-3-yl)-3-fluorophenethyl)piperazin-1-yl)pyridin-2-yl)-1H-pyrazolo[3,4-b]pyridin-3-yl)-2-methylphenyl)ethyl)-1,2,4-oxadiazole-3-carboxamide]
2.11 | Cc1cc(CCN2CCN(c3ccc(-c4cnc5[nH]nc(-c6ccc([C@@H](C)NC(=O)c7noc(C(C)(C)C)n7)c(C)c6)c5c4)nc3)CC2)ncc1C1CCC(=O)NC1=O (stereo partly drawn) [Example 147, 5-(tert-butyl)-N-((1R)-1-(4-(5-(5-(4-(2-(5-(2,6-dioxopiperidin-3-yl)-4-methylpyridin-2-yl)ethyl)piperazin-1-yl)pyridin-2-yl)-1H-pyrazolo[3,4-b]pyridin-3-yl)-2-methylphenyl)ethyl)-1,2,4-oxadiazole-3-carboxamide]
1.84 | Cc1cc(CCN2CCN(c3ccc(-c4cnc5[nH]nc(-c6ccc([C@@H](C)NC(=O)c7noc(C(C)(C)C)n7)c(C)c6F)c5c4)cc3)CC2)ncc1C1CCC(=O)NC1=O (stereo partly drawn) [Example 148, 5-(tert-butyl)-N-((1R)-1-(4-(5-(4-(4-(2-(5-(2,6-dioxopiperidin-3-yl)-4-methylpyridin-2-yl)ethyl)piperazin-1-yl)phenyl)-1H-pyrazolo[3,4-b]pyridin-3-yl)-3-fluoro-2-methylphenyl)ethyl)-1,2,4-oxadiazole-3-carboxamide]
1.6 | Cc1cc(CCN2CCN(c3ccc(-c4cnc5[nH]nc(-c6ccc([C@@H](C)NC(=O)c7noc(C(C)(C)C)n7)c(CO)c6)c5c4)cc3)CC2)ncc1C1CCC(=O)NC1=O (stereo partly drawn) [Example 149, 5-(tert-butyl)-N-((1R)-1-(4-(5-(4-(4-(2-(5-(2,6-dioxopiperidin-3-yl)-4-methylpyridin-2-yl)ethyl)piperazin-1-yl)phenyl)-1H-pyrazolo[3,4-b]pyridin-3-yl)-2-(hydroxymethyl)phenyl)ethyl)-1,2,4-oxadiazole-3-carboxamide]
8.88 | Cc1cc(-c2n[nH]c3ncc(-c4ccc(N5CCN(CCc6ccc([C@H]7CCC(=O)NC7=O)cc6)CC5)cc4)cc23)ccc1CNC(=O)c1cn(C(C)(C)C)nn1 [Example 150, (R)-1-(tert-butyl)-N-(4-(5-(4-(4-(4-(2,6-dioxopiperidin-3-yl)phenethyl)piperazin-1-yl)phenyl)-1H-pyrazolo[3,4-b]pyridin-3-yl)-2-methylbenzyl)-1H-1,2,3-triazole-4-carboxamide]
17.8 | Cc1cc(-c2n[nH]c3ncc(-c4ccc(N5CCN(CCc6ccc([C@@H]7CCC(=O)NC7=O)cc6)CC5)cc4)cc23)ccc1CNC(=O)c1cn(C(C)(C)C)nn1 [Example 151, (S)-1-(tert-butyl)-N-(4-(5-(4-(4-(4-(2,6-dioxopiperidin-3-yl)phenethyl)piperazin-1-yl)phenyl)-1H-pyrazolo[3,4-b]pyridin-3-yl)-2-methylbenzyl)-1H-1,2,3-triazole-4-carboxamide]
1.03 | Cc1cc(-c2n[nH]c3ncc(-c4ccc(C5CCN(CCc6ccc([C@H]7CCC(=O)NC7=O)cc6)CC5)nc4)cc23)ccc1[C@@H](C)NC(=O)c1noc(C(C)(C)C)n1 [Example 152, 5-(tert-butyl)-N—((R)-1-(4-(5-(6-(1-(4-((R)-2,6-dioxopiperidin-3-yl)phenethyl)piperidin-4-yl)pyridin-3-yl)-1H-pyrazolo[3,4-b]pyridin-3-yl)-2-methylphenyl)ethyl)-1,2,4-oxadiazole-3-carboxamide]
11.8 | Cc1cc(-c2n[nH]c3ncc(-c4ccc(C5CCN(CCc6ccc([C@@H]7CCC(=O)NC7=O)cc6)CC5)nc4)cc23)ccc1[C@@H](C)NC(=O)c1noc(C(C)(C)C)n1 [Example 153, 5-(tert-butyl)-N—((R)-1-(4-(5-(6-(1-(4-((S)-2,6-dioxopiperidin-3-yl)phenethyl)piperidin-4-yl)pyridin-3-yl)-1H-pyrazolo[3,4-b]pyridin-3-yl)-2-methylphenyl)ethyl)-1,2,4-oxadiazole-3-carboxamide]
3.27 | Cc1cc(CCN2CCN(c3ccc(-c4cnc5[nH]nc(-c6ccc([C@@H](C)NC(=O)c7nc(C(C)(C)C)no7)c(C)c6)c5c4)cc3)CC2)ncc1C1CCC(=O)NC1=O (stereo partly drawn) [Example 154, 3-(tert-butyl)-N-((1R)-1-(4-(5-(4-(4-(2-(5-(2,6-dioxopiperidin-3-yl)-4-methylpyridin-2-yl)ethyl)piperazin-1-yl)phenyl)-1H-pyrazolo[3,4-b]pyridin-3-yl)-2-methylphenyl)ethyl)-1,2,4-oxadiazole-5-carboxamide]
2.92 | Cc1cc(-c2n[nH]c3ncc(-c4ccc(N5CCN(CCc6ccc(C7CCC(=O)NC7=O)c(C)n6)CC5)cc4)cc23)ccc1[C@@H](C)NC(=O)c1noc(C(C)(C)C)n1 (stereo partly drawn) [Example 155, 5-(tert-butyl)-N-((1R)-1-(4-(5-(4-(4-(2-(5-(2,6-dioxopiperidin-3-yl)-6-methylpyridin-2-yl)ethyl)piperazin-1-yl)phenyl)-1H-pyrazolo[3,4-b]pyridin-3-yl)-2-methylphenyl)ethyl)-1,2,4-oxadiazole-3-carboxamide]
2.14 | Cc1cc(-c2n[nH]c3ncc(-c4ccc(N5CCN(CCc6ccc(C7CCC(=O)NC7=O)c(C)n6)CC5)cc4)cc23)ccc1[C@@H](C)NC(=O)c1nc(C(C)(C)C)no1 (stereo partly drawn) [Example 156, 3-(tert-butyl)-N-((1R)-1-(4-(5-(4-(4-(2-(5-(2,6-dioxopiperidin-3-yl)-6-methylpyridin-2-yl)ethyl)piperazin-1-yl)phenyl)-1H-pyrazolo[3,4-b]pyridin-3-yl)-2-methylphenyl)ethyl)-1,2,4-oxadiazole-5-carboxamide]
62.1 | Cc1cc(-c2n[nH]c3nc(-c4ccc(N5CCN(CC6CCN(c7ccc(N8CCC(=O)NC8=O)cc7)CC6)CC5)cc4)ccc23)ccc1[C@@H](C)NC(=O)c1noc(C(C)(C)C)n1 [Example 157, (R)-5-(tert-butyl)-N-(1-(4-(6-(4-(4-((1-(4-(2,4-dioxotetrahydropyrimidin-1(2H)-yl)phenyl)piperidin-4-yl)methyl)piperazin-1-yl)phenyl)-1H-pyrazolo[3,4-b]pyridin-3-yl)-2-methylphenyl)ethyl)-1,2,4-oxadiazole-3-carboxamide]
